# Test system: Pa
# Test: OECD Quantitative Method for Evaluating Bactericidal Activity of Microbiocides Used on Hard, Non-Porous Surfaces
# Format: cell-based, Pseudomonas aeruginosa
# Settings: for level of efficacy / number of organisms reduced (in words): quaternary ammonium acid compounds based on different acids, summary of the OECD tests
# Description: One acknowledged method for determining micro efficacy is the OECD (Organisation for Economic Co-operation and Development) Quantitative Method for Evaluating Bactericidal Activity of Microbiocides Used on Hard, Non-Porous Surfaces. This method entails inoculating small, stainless steel disks called carriers with inoculum, in the presence of hard water. It is theorized that microorganisms, such as pseudomonas, form a biofilm on these carriers. Due to the size of the disk, the presence of a biofilm and the surface tension of the liquid on the disk, this requires qua-based systems to be generally over-formulated to achieve the required efficacy to pass testing. This provides an unfair advantage to both acids and oxidizers used as biocides because of their innate ability to oxidize steel, remove the biofilm without being affected by hard water. This invention combats this issue by combining the biocidal power of quaternary ammonium compound with the oxidizing power of acid.
# [1] = 800 ppm Active/375 ppm Hard Water/5% Organic Soil/5 Minute Contact Time
Molecule,"OECD results of Quaternium Ammonium Acid Molecule, Test 1 [1]",level of efficacy / number of organisms reduced (in words),"OECD results of Quaternium Ammonium Acid Molecule, Test 2 [1]",further results
CCCCCCCCCC[N+](C)(C)CCCCCCCCCC.O=C([O-])CO [Glycolic],1.99,–,–,–
CCCCCCCCCC[N+](C)(C)CCCCCCCCCC.NS(=O)(=O)[O-] [Sulfamic],4.66,greatest level of efficacy,–,level of efficacy / number of organisms reduced (in words) (listed as sulfamic acid): highest number of organisms reduced
"didecyl dimethyl ammonium carbonate/bicarbonate [Quat Carbonate, reference compound]",–,–,–,"Log10 Reduction vs. Pa (Quaternium Ammonium Chloride in Acid Solution, 800 ppm Active/375 ppm Hard Water/5% Organic Soil/5 Minute Contact Time): <2.82 Log10"
Oxalic,5.54,greatest level of efficacy,–,level of efficacy / number of organisms reduced (in words) (listed as oxalic acid): highest number of organisms reduced
O=C(O)C(O)C(O)C(=O)O (stereo not drawn) [Tartaric],4.22,greatest level of efficacy,3.05,level of efficacy / number of organisms reduced (in words) (listed as tartaric acid): highest number of organisms reduced
CCCCCCCCCC[N+](C)(C)CCCCCCCCCC.O=[N+]([O-])[O-] [Nitric],1.94,–,–,–
CC(=O)[O-].CCCCCCCCCC[N+](C)(C)CCCCCCCCCC [Acetic],5.71,greatest level of efficacy,4.93,level of efficacy / number of organisms reduced (in words) (listed as acetic acid): highest number of organisms reduced
Sulfuric,3.14,–,–,–
O=P(O)(O)O [Phosphoric],–,greatest level of efficacy,4.93,level of efficacy / number of organisms reduced (in words) (listed as phosphoric acid): highest number of organisms reduced
